Measurements taken from patent publication US20080234236A1, “REDUCTION OF ADVERSE EVENTS AFTER PERCUTANEOUS INTERVENTION BY USE OF A THROMBIN RECEPTOR ANTAGONIST” (priority 2007, published 2008).
Where “and” joins values, the source holds several entries; their conditions need not be identical. Equal values may be shown once.

Key:
Type in all cases: in vivo, humans
[1] = Phase 2 study (P03573): bleeding in primary (PCI) cohort; conditions: for non-TIMI bleeding: Arterial Access, patients (%) / non-TIMI bleeding: Contusion/Bruise, patients (%) / non-TIMI bleeding: Expistaxis, patients (%) / non-TIMI bleeding: GI, patients (%) / non-TIMI bleeding: Genitourinary, patients (%) / non-TIMI bleeding: Gingival, patients (%) / non-TIMI bleeding: Incidental Cuts, patients (%) / non-TIMI bleeding: Vascular Puncture, patients (%): primary PCI cohort; for Any bleed, patients (%) / TIMI Major bleeding, patients (%) / TIMI Major/Minor bleeding, patients (%) / non-TIMI bleeding (overall), patients (%) / TIMI Minor bleeding, patients (%): primary cohort (PCI), 60 days
Excerpt: (§1) The behavior of SCH 530348 in humans was further studied in a Phase 2 clinical development program. A key safety issue for SCH 530348 is the potential for incremental bleeding when added to standard of care with other oral antiplatelet therapies as well as parenteral antithrombotics. Therefore, a single Phase 2 study (P03573) was completed to evaluate the safety of SCH 530348 in patients at high risk of bleeding events, i.e., those patients undergoing non-emergent PCI (percutaneous coronary intervention). The goals of this Phase 2 study were to: • Evaluate the safety of SCH 530348 in addition to standard of care with respect to TIMI major and minor bleeding; and, • Observe the effects of SCH 530348 on major adverse cardiac events (“MACE”) in patients successfully completing an interventional procedure.
(§2) The primary endpoint (directed to evaluating safety) was the combined […] (“TIMI”) major and TIMI minor bleeding over sixty days in the primary evaluable cohort. Though the study was not powered to evaluate efficacy, a secondary endpoint (directed to evaluating efficacy) was the incidence of the composite of death and major adverse cardiac events (“MACE”) in the primary cohort. MACE includes myocardial infarction, urgent revascularization, and ischemia requiring hospitalization. Pharmacokinetics and pharmacodynamics were assessed at selected sites across the treatment groups. Other secondary endpoints included the incidence of TIMI major and minor bleeding in the secondary evaluable cohort i.e., those individuals who received the loading dose only.

[2] = Phase 2 study (P03573): death, MACE and other clinical events in primary (PCI) cohort; conditions: for Death/MACE, patients (%) / Death/MACE/Stroke, patients (%) / Death/MI, patients (%) / MACE, patients (%) / MI, patients (%) / Recurrent ischemia, patients (%) / Revascularization, patients (%) / Death, patients (%) / Stroke, patients (%): primary cohort (PCI); for Death/MACE, patients (%) / Death/MACE/Stroke, patients (%) / Death/MI, patients (%) / MACE, patients (%) / MI, patients (%) / Recurrent ischemia, patients (%) / Revascularization, patients (%): 60 days
Excerpt: as §1, §2
Although the Phase 2 study was neither designed nor powered to assess efficacy, i.e., reduction of clinical event rates, there was a 31% relative reduction observed in the composite of death and major adverse cardiac events (MACE) at sixty days in the SCH 530348 group (5.9%) versus placebo (8.6%) in the primary cohort. This difference was not statistically significant. All clinical events were adjudicated by a blinded Clinical Events Committee.

[3] = Pharmacokinetics: blood concentration of SCH 530348
Protocol: As the dose of SCH 530348 increased, the onset of platelet aggregation occurred at earlier sampling time points and maximum observed inhibition of aggregation increased, with 20 and 40 mg causing consistent maximum (>80%) inhibition of TRAP-induced platelet aggregation at 1-2 hours post dose. […] The duration of these pharmacodynamic effects is consistent with the drug's long elimination half-life.
This level of platelet inhibition is believed to be sufficient to lower the risks of adverse clinical events associated with PCI. […] The term “risk-abated PCI procedures” will be understood to mean those PCI procedures that are undertaken after the patient has achieved at least 80% platelet inhibition. This represents a marked improvement over the 4-6 hour period before risk-abated PCI can be performed using the current standard of care, i.e., clopidogrel and aspirin without a thrombin receptor antagonist.

[4] = primary cohort, 40 mg loading dose

Compound: CCOC(=O)N[C@@H]1CC[C@@H]2[C@@H](C1)C[C@H]1C(=O)O[C@H](C)[C@H]1[C@H]2/C=C/c1ccc(-c2cccc(F)c2)cn1.O=S(=O)(O)O [SCH 530348, ethyl [(1R,3aR,4aR,6R,8aR,9S,9aS)-9-[(E)-2-[5-(3-fluorophenyl)-2-pyridinyl]ethenyl]-dodecahydro-1-methyl-3-oxonaphtho[2,3-c]furan-6-yl] carbamate bisulfate]
- non-TIMI bleeding: Arterial Access, patients (%) ([1]; 10 mg loading dose): 11%
- non-TIMI bleeding: Contusion/Bruise, patients (%) ([1]; 10 mg loading dose): 10%
- non-TIMI bleeding: Expistaxis, patients (%) ([1]; 10 mg loading dose): 6%
- non-TIMI bleeding: GI, patients (%) ([1]; 10 mg loading dose): 2 (2%)
- non-TIMI bleeding: Genitourinary, patients (%) ([1]; 10 mg loading dose): 3%
- non-TIMI bleeding: Gingival, patients (%) ([1]; 10 mg loading dose): 2 (2%)
- non-TIMI bleeding: Incidental Cuts, patients (%) ([1]; 10 mg loading dose): 4%
- non-TIMI bleeding: Vascular Puncture, patients (%) ([1]; 10 mg loading dose): 12%
- non-TIMI bleeding: Arterial Access, patients (%) ([1]; 20 mg loading dose): 17%
- non-TIMI bleeding: Contusion/Bruise, patients (%) ([1]; 20 mg loading dose): 17%
- non-TIMI bleeding: Expistaxis, patients (%) ([1]; 20 mg loading dose): 5%
- non-TIMI bleeding: GI, patients (%) ([1]; 20 mg loading dose): 1 (1%)
- non-TIMI bleeding: Genitourinary, patients (%) ([1]; 20 mg loading dose): 5%
- non-TIMI bleeding: Gingival, patients (%) ([1]; 20 mg loading dose): 1 (1%)
- non-TIMI bleeding: Incidental Cuts, patients (%) ([1]; 20 mg loading dose): 13%
- non-TIMI bleeding: Vascular Puncture, patients (%) ([1]; 20 mg loading dose): 18%
- non-TIMI bleeding: Arterial Access, patients (%) ([1]; 40 mg loading dose): 14%
- non-TIMI bleeding: Contusion/Bruise, patients (%) ([1]; 40 mg loading dose): 18%
- non-TIMI bleeding: Expistaxis, patients (%) ([1]; 40 mg loading dose): 5%
- non-TIMI bleeding: GI, patients (%) ([1]; 40 mg loading dose): 3%
- non-TIMI bleeding: Genitourinary, patients (%) ([1]; 40 mg loading dose): 2%
- non-TIMI bleeding: Gingival, patients (%) ([1]; 40 mg loading dose): 1%
- non-TIMI bleeding: Incidental Cuts, patients (%) ([1]; 40 mg loading dose): 10%
- non-TIMI bleeding: Vascular Puncture, patients (%) ([1]; 40 mg loading dose): 15%
- non-TIMI bleeding: Arterial Access, patients (%) ([1]; All SCH 530348): 14%
- non-TIMI bleeding: Contusion/Bruise, patients (%) ([1]; All SCH 530348): 15%
- non-TIMI bleeding: Expistaxis, patients (%) ([1]; All SCH 530348): 5%
- non-TIMI bleeding: GI, patients (%) ([1]; All SCH 530348): 2%
- non-TIMI bleeding: Genitourinary, patients (%) ([1]; All SCH 530348): 3%
- non-TIMI bleeding: Gingival, patients (%) ([1]; All SCH 530348): 1%
- non-TIMI bleeding: Incidental Cuts, patients (%) ([1]; All SCH 530348): 9%
- non-TIMI bleeding: Vascular Puncture, patients (%) ([1]; All SCH 530348): 15%
- Any bleed, patients (%) ([1]; 10 mg loading dose): 37%
- TIMI Major bleeding, patients (%) ([1]; 10 mg loading dose): 1.6%
- TIMI Major/Minor bleeding, patients (%) ([1]; 10 mg loading dose): 1.6%
- non-TIMI bleeding (overall), patients (%) ([1]; 10 mg loading dose): 36%
- Any bleed, patients (%) ([1]; 20 mg loading dose): 43%
- TIMI Major/Minor bleeding, patients (%) ([1]; 20 mg loading dose): 2.5%
- TIMI Minor bleeding, patients (%) ([1]; 20 mg loading dose): 2.5%
- non-TIMI bleeding (overall), patients (%) ([1]; 20 mg loading dose): 43%
- Any bleed, patients (%) ([1]; 40 mg loading dose): 45%
- TIMI Major bleeding, patients (%) ([1]; 40 mg loading dose): 0.6%
- TIMI Major/Minor bleeding, patients (%) ([1]; 40 mg loading dose): 4.0%
- TIMI Minor bleeding, patients (%) ([1]; 40 mg loading dose): 3.4%
- non-TIMI bleeding (overall), patients (%) ([1]; 40 mg loading dose): 42% and 43%
- Any bleed, patients (%) ([1]; All SCH 530348): 42%
- TIMI Major bleeding, patients (%) ([1]; All SCH 530348): 0.7%
- TIMI Minor bleeding, patients (%) ([1]; All SCH 530348): 2.1%
- non-TIMI bleeding (overall), patients (%) ([1]; All SCH 530348): 41% and 40%
- TIMI Major/Minor bleeding, patients (%) ([1]; All SCH 530348, primary safety endpoint): 2.8%
- Death/MACE, patients (%) ([2]; 10 mg loading dose): 8.5%
- Death/MACE/Stroke, patients (%) ([2]; 10 mg loading dose): 9.3%
- Death/MI, patients (%) ([2]; 10 mg loading dose): 5.4%
- MACE, patients (%) ([2]; 10 mg loading dose): 8.5%
- MI, patients (%) ([2]; 10 mg loading dose): 5.4%
- Recurrent ischemia, patients (%) ([2]; 10 mg loading dose): 0.8%
- Revascularization, patients (%) ([2]; 10 mg loading dose): 2.3%
- Death/MACE, patients (%) ([2]; 20 mg loading dose): 5%
- Death/MACE/Stroke, patients (%) ([2]; 20 mg loading dose): 5.0%
- Death/MI, patients (%) ([2]; 20 mg loading dose): 4.2%
- MACE, patients (%) ([2]; 20 mg loading dose): 5.0%
- MI, patients (%) ([2]; 20 mg loading dose): 4.2%
- Revascularization, patients (%) ([2]; 20 mg loading dose): 0.8%
- Death/MACE, patients (%) ([2]; 40 mg loading dose): 4.6%
- Death/MACE/Stroke, patients (%) ([2]; 40 mg loading dose): 4.6%
- Death/MI, patients (%) ([2]; 40 mg loading dose): 4.0%
- MACE, patients (%) ([2]; 40 mg loading dose): 4.0%
- MI, patients (%) ([2]; 40 mg loading dose): 3.5%
- Revascularization, patients (%) ([2]; 40 mg loading dose): 1.2%
- Death/MACE, patients (%) ([2]; All SCH 530348): 5.9%
- Death/MACE/Stroke, patients (%) ([2]; All SCH 530348): 6.2%
- Death/MI, patients (%) ([2]; All SCH 530348): 4.5%
- MACE, patients (%) ([2]; All SCH 530348): 5.7%
- MI, patients (%) ([2]; All SCH 530348): 4.3%
- Recurrent ischemia, patients (%) ([2]; All SCH 530348): 0.2%
- Revascularization, patients (%) ([2]; All SCH 530348): 1.4%
- Death, patients (%) ([2]; 10 mg loading dose): 0.8%
- Stroke, patients (%) ([2]; 10 mg loading dose): 0.8%
- Death, patients (%) ([2]; 40 mg loading dose): 0.6%
- Death, patients (%) ([2]; All SCH 530348): 0.5%
- Stroke, patients (%) ([2]; All SCH 530348): 0.2%
- Reduction in MI versus placebo [2, 4]: 52%
- Relative reduction in composite of death and MACE versus placebo [2, 4]: 47%
- Relative reduction in composite of death and MACE at sixty days versus placebo ([2]; primary cohort, SCH 530348 group (all doses), not statistically significant): 31%
- Time to peak blood concentration levels ([3]; 40 mg loading dose): in as little as one hour
- Elimination half-life ([3]; in vivo): long
